# How the values were obtained:
# A549 cells = experiment: FACS cell cycle analysis in A549 cells; assay type: cell-based, human
# Experimental: The A549 cell line was obtained from the American Tissue Culture Collection (ATCC), Manassas, Va. and maintained in Ham's media supplemented with 10% heat-inactivated Fetal Bovine Serum (HI-FBS; GIBCO/BRL, Gaithersburg, Md.) and 2 mM L-glutamine (GIBCO/BRL). 1×10^6 A549 cells were seeded in […] plates for FACS analysis and 3×10^5 cells per well were seeded in 6-well plate for Western blot analysis. Cells were allowed to attach for 24 hours and then treated with compound (1) compound at the following concentrations: 0.1, 0.25, 0.5, 1, 2.5 and 5 μM. Cells were incubated for either 72 or 120 hours and collected for FACS analysis.
# Cells were incubated with compound (1) for 72 or 120 hours, harvested by scraping, washed twice in phosphate-buffered saline (PBS), spun down at 1.5×10^3 rpm, and fixed at −20° C. overnight with 70% ethanol. Cells were then analyzed using MPM2-FITC and propidium iodide (PI) double staining (Becton Dickinson, San Jose, Calif.). Briefly, cells were washed twice with cold PBS containing 0.05% Tween-20 (PBST), incubated for 2 hours with anti-Phospho Ser/Thr MPM2 antibody (#05-368, Upstate/Millipore, Bullerica, Mass.), washed with PBST again, incubated in the dark with secondary IgG-FITC antibody (#AP308F, Chemicon, Temecula, Calif.), washed with PBST and incubated with PI/RNase solution (Becton Dickinson, San Jose, Calif.) for additional 30 min at 37° C.
# Samples were analyzed on a FACScan flow cytometer (Becton Dickinson, San Jose, Calif.) equipped with a 488 nm argon ion laser. Green fluorescein isothiocyanate (FITC) fluorescence was collected with a 530/30 nm bandpass filter using logarithmic amplification and orange emission from propidium iodide (PI) was filtered through a 585/42 nm bandpass filter using linear amplification. A minimum of 20,000 events was collected on each sample. Cell cycle analysis of DNA histograms was performed with FlowJo software (Tree Star Inc., Ashland, Oreg.).
# [1] = tested on: BxPC3 pancreatic xenografts; experiment: Antitumor efficacy in BxPC3 pancreatic xenografts in SCID-beige mice; assay type: in vivo
# Experimental: Female (athymic nu/nu) nude mice were obtained from Charles River Laboratories (Wilmington, Mass.), while female SCID-beige mice were purchased from Taconic (Germantown, N.Y.). Mice were used when they were approximately 8-12 weeks old (nudes) or 8-10 weeks old (SCID-beige), and weighed approximately 23-25 grams. The health of all animals was determined daily by gross observation of experimental animals and by the analyses of blood samples of sentinel animals that were housed on the shared shelf racks. All animals were allowed to acclimate and recover from any shipping related stress for a minimum of 72 hours prior to experimental use. Autoclaved water and irradiated food [5058-ms Pico chow (mouse) Purina, Richmond, Ind.] were provided ad libitum, and the animals were maintained on a 12 hour light and dark cycle. Cages, bedding and water bottles were autoclaved before use and were changed weekly. MiaPaca2, AsPC1 and BxPC3 human pancreatic carcinoma cells were purchased from ATCC (Manassas, Va.). BxPC3 and AsPC1 cells were grown in RPMI medium and MiaPaca2 cells were grown in Dulbecco's Modified Essential Medium (DMEM). All culture media were supplemented with 10% (v/v) FBS and 1% (v/v) […]. […] SCID-biege mice were implanted se with 5×10^6 BxPC3 cells in a 1:1 mixture of matrigel:PBS in a volume of 0.2 ml per mouse in the right hind flank on May 22, 2007. […] Formulated compound and vehicle were stored at 4° C. and prepared weekly. The suspension was mixed vigorously prior to administration. Gemcitabine (Gemzar®, Eli Lilly and Company, Indianapolis, Ind., USA) was reconstituted with sterile saline to yield a stock solution of 38 mg/ml for the entire 3-4 week study. […] Nude mice implanted with MiaPaca2 or AsPC1 xenografts were randomized on day 17 and day 9 post cell implant, respectively. SCID-beige mice bearing BxPC3 xenografts were randomized 8 days post implant. […] Treatment for the MiaPaca2 study began on Feb. […] For the MiaPaca2 and AsPC1 studies, qd Compound (1) suspension or q3d gemcitabine treatment ended on day 37 post tumor cell implant, whereas for the BxPC3 study, qd Compound (1) suspension or q3d gemcitabine treatment ended on day 35 post tumor cell implant. Efficacy data was graphically represented as the mean tumor volume+standard error of the mean (SEM). Tumor volumes of treated groups were presented as percentages of tumor volumes of the control groups (% T/C), using the formula: 100×((T−T0)/(C−C0)), where T represented mean tumor volume of a treated group on a specific day during the experiment, T0 represented mean tumor volume of the same treated group on the first day of treatment; C represented mean tumor volume of a control group on the specific day during the experiment, and C0 represented mean tumor volume of the same treated group on the first day of treatment. Tumor volume (in cubic millimeters) was calculated using the ellipsoid formula: (D×(d2))/2 where ‘D’ represents the large diameter of the tumor, and ‘d’ represents the small diameter. In some cases, tumor regression and/or percent change in tumor volume was calculated using the formula: ((T−T0)/T0)×100 where ‘T’ represents mean tumor volume of the treated group at a particular day, and ‘T0’ represents mean tumor volume of the same treated group at initiation of treatment. Statistical analysis was determined by the rank sum test and One Way Anova and a post-hoc Bonferroni t-test (SigmaStat, version 2.0, Jandel Scientific, San Francisco, Calif.). Differences between groups were considered to be significant when the probability value (p) was ≦0.05.
structure (smiles),measurement,setting,value
"CC(C)(C(=O)NCC(F)(F)C(F)(F)F)C(=O)N[C@@H]1C(=O)Nc2ccccc2-c2ccccc21 [Compound (1), 2,2-Dimethyl-N—((S)-6-oxo-6,7-dihydro-5H-dibenzo[b,d]azepin-7-yl)-N′-(2,2,3,3,3-pentafluoro-propyl)-malonamide]","G1, %","A549 cells; 0.10 μM, 72 hrs",63.1%
same,"G2/M, %","A549 cells; 0.10 μM, 72 hrs",23.3%
same,"subG1, %","A549 cells; 0.10 μM, 72 hrs",6.5%
same,"G1, %","A549 cells; 0.10 μM, 120 hrs",59.0%
same,"G2/M, %","A549 cells; 0.10 μM, 120 hrs",24.1%
same,"subG1, %","A549 cells; 0.10 μM, 120 hrs",6.8%
same,"G1, %","A549 cells; 0.25 μM, 72 hrs",64.8%
same,"G2/M, %","A549 cells; 0.25 μM, 72 hrs",20.3%
same,"subG1, %","A549 cells; 0.25 μM, 72 hrs",5.9%
same,"G1, %","A549 cells; 0.25 μM, 120 hrs",61.1%
same,"G2/M, %","A549 cells; 0.25 μM, 120 hrs",23.8%
same,"subG1, %","A549 cells; 0.25 μM, 120 hrs",6.7%
same,"G1, %","A549 cells; 0.50 μM, 72 hrs",66.6%
same,"G2/M, %","A549 cells; 0.50 μM, 72 hrs",19.4%
same,"subG1, %","A549 cells; 0.50 μM, 72 hrs",4.3%
same,"G1, %","A549 cells; 0.50 μM, 120 hrs",58.6%
same,"G2/M, %","A549 cells; 0.50 μM, 120 hrs",23.3%
same,"subG1, %","A549 cells; 0.50 μM, 120 hrs",9.6%
same,"G1, %","A549 cells; 1.0 μM, 72 hrs",64%
same,"G2/M, %","A549 cells; 1.0 μM, 72 hrs",21.5%
same,"subG1, %","A549 cells; 1.0 μM, 72 hrs",6.6%
same,"G1, %","A549 cells; 1.0 μM, 120 hrs",60.9%
same,"G2/M, %","A549 cells; 1.0 μM, 120 hrs",19.8%
same,"subG1, %","A549 cells; 1.0 μM, 120 hrs",8.0%
same,"G1, %","A549 cells; 5.0 μM, 72 hrs",64.9%
same,"G2/M, %","A549 cells; 5.0 μM, 72 hrs",20%
same,"subG1, %","A549 cells; 5.0 μM, 72 hrs",8.4%
same,"G1, %","A549 cells; 5.0 μM, 120 hrs",58.7%
same,"G2/M, %","A549 cells; 5.0 μM, 120 hrs",18.3%
same,"subG1, %","A549 cells; 5.0 μM, 120 hrs",13.7%
same,% TGI,"[1]; 3 mg/kg po qd, day 35",72%
same,% TGI,"[1]; 10 mg/kg po qd, day 35",82%
same,% TGI,"[1]; 10 mg/kg po, 3+/4− schedule",56%
same,% TGI,"[1]; 20 mg/kg po, 7+/7− schedule",63%
same,% TGI,"[1]; 23 mg/kg po, 3+/4− schedule",64%
same,% TGI,"[1]; 30 mg/kg po, 3+/4− schedule",50%

# From patent publication US8741889B2, “Method of treating non-small cell lung cancer and colon cancer with gamma-secretase inhibitor” (Hoffmann-La Roche Inc, priority 2008, dated 2014)
